# Measured values as given in patent US20240132485A1, “HETEROCYCLIC CULLIN RING UBIQUITIN LIGASE COMPOUNDS AND USES THEREOF” (CEMM - FORSCHUNGSZENTRUM FÜR MOLEKULARE MEDIZIN GMBH, priority 2020, published 2024).
# Columns and labels:
# Cyclin K = conditions: cited from earlier work
# KBM7_WT cells = assay: Cell viability assay (CellTiter Glo), KBM7 wild-type, 3-day treatment; assay type: cell-based; conditions: Homo sapiens, KBM-7, 72 h, read-out: LC50 KBM7_WT
# Procedure: (§1) KBM7^WT, UBE2M and CUL4B mutant KBM7 clones (UBE2M^mut and CUL4B^mut) were seeded at a cell density of 50,000 cells/mL in 96-well with DMSO or degraders Z1 to Z3, Z5 to Z7, Z9 to Z11, Z13 and Z14 in triplicates. Cells were treated for 3 days, after which a cell viability assay was performed (CellTiter Glo, Promega), according to manufacturer's protocol. Survival curves and IC50 values (LC50 values) were calculated by best-fit analysis of the log 10 drug concentration to fold change of drug-treated cells over DMSO-treated cells. All survival assays included technical triplicates per sample, per experiment.
# (§2) Compounds, Z1 to Z3, Z5 to Z7, Z9 to Z11, Z13 and Z14, were tested for their antiproliferative effects in human leukemia cells (KBM7). These cells were either transduced with a control sgRNA (KBM7_WT), or with an sgRNA targeting UBE2M or CUL4B, leading to a hypomorph (deletion of six amino acids) with a functional impairment (UBE2M_MUT).
# (§3) Indeed, 11 compounds Z1 to Z3, Z5 to Z7, Z9 to Z11, Z13 and Z14 were identified to fulfill these criteria and to stand out in terms of fold-change significance; see, e.g., FIG. 1 and Table 1. The dose ranging differential effect of these hits was assessed/validated, comparing their activity in KBM7_WT (KBM7^WT) vs UBE2_MUT and CUL4B_MUT cells (UBE2M^mut and CUL4B^mut).
# UBE2M_MUT KBM7 cells = assay: Cell viability assay (CellTiter Glo), UBE2M mutant KBM7 clone, 3-day treatment; assay type: cell-based; conditions: Homo sapiens, KBM-7, 72 h, UBE2M mutant KBM7, 3-day treatment, read-out: LC50 UBE2M_MUT
# Procedure: as §1, §2, §3
# CUL4B_MUT KBM7 cells = assay: Cell viability assay (CellTiter Glo), CUL4B mutant KBM7 clone, 3-day treatment; assay type: cell-based; conditions: Homo sapiens, KBM-7, 72 h, CUL4B mutant KBM7, 3-day treatment, read-out: LC50 CUL4B_MUT
# Procedure: as §1, §2, §3
# [1] = target: Nanoluc_DDB1 (N-terminal Nanoluc luciferase, G4S linker, DDB1 (FL)) (UniProt Q16531); assay: NanoBRET in HEK293T cells, 10 µM compound Example 3-48; class B = 3-4 fold increase
# Sequence of Nanoluc_DDB1 (N-terminal Nanoluc luciferase, G4S linker, DDB1 (FL)) (Q16531 other isoform, or with tags, fused parts or gaps): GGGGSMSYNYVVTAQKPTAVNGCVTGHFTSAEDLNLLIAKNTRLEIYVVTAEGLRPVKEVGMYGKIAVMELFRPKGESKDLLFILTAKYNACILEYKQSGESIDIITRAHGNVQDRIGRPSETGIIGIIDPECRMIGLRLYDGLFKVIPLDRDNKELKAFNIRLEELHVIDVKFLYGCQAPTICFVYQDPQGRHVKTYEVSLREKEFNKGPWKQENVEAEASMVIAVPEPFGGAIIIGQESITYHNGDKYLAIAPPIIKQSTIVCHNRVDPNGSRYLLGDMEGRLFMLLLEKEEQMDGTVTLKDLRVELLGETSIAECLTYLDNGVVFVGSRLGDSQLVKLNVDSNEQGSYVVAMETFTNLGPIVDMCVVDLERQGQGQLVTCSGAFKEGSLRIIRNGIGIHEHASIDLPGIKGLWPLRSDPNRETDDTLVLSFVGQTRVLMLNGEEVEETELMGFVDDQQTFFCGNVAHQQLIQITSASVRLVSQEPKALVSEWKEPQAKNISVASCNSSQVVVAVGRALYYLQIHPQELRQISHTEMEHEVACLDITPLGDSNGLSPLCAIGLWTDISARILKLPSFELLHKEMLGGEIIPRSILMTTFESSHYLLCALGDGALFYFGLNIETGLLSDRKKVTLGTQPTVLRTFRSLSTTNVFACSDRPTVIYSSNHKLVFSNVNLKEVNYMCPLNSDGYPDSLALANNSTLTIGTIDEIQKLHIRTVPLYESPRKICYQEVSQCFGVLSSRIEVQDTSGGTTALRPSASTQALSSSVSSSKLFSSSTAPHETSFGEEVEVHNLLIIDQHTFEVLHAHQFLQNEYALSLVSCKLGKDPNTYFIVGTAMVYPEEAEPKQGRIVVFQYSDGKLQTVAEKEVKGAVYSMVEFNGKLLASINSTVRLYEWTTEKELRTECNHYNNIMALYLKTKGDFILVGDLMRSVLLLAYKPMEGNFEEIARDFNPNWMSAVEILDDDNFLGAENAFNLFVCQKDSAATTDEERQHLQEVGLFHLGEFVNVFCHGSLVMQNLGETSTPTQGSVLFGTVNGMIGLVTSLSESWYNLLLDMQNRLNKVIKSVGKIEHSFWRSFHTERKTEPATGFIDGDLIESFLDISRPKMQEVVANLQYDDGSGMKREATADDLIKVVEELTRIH
# [2] = target: T1, DDB1-CDK12/Cyclin K ternary complex (Homo sapiens, UniProt Q16531+Q9NYV4); assay: NanoBRET fold-change assay (HaloTag_CDK12 / NanoLuc_DDB1 in HEK293T); assay type: cell-based; conditions: 10 μM compound, 10 minutes
# T1 construct: expressed in transfected cells; host or cells: HEK293T wildtype cells, transient PEI transfection
# T1 sequence (Q9NYV4 whole entry): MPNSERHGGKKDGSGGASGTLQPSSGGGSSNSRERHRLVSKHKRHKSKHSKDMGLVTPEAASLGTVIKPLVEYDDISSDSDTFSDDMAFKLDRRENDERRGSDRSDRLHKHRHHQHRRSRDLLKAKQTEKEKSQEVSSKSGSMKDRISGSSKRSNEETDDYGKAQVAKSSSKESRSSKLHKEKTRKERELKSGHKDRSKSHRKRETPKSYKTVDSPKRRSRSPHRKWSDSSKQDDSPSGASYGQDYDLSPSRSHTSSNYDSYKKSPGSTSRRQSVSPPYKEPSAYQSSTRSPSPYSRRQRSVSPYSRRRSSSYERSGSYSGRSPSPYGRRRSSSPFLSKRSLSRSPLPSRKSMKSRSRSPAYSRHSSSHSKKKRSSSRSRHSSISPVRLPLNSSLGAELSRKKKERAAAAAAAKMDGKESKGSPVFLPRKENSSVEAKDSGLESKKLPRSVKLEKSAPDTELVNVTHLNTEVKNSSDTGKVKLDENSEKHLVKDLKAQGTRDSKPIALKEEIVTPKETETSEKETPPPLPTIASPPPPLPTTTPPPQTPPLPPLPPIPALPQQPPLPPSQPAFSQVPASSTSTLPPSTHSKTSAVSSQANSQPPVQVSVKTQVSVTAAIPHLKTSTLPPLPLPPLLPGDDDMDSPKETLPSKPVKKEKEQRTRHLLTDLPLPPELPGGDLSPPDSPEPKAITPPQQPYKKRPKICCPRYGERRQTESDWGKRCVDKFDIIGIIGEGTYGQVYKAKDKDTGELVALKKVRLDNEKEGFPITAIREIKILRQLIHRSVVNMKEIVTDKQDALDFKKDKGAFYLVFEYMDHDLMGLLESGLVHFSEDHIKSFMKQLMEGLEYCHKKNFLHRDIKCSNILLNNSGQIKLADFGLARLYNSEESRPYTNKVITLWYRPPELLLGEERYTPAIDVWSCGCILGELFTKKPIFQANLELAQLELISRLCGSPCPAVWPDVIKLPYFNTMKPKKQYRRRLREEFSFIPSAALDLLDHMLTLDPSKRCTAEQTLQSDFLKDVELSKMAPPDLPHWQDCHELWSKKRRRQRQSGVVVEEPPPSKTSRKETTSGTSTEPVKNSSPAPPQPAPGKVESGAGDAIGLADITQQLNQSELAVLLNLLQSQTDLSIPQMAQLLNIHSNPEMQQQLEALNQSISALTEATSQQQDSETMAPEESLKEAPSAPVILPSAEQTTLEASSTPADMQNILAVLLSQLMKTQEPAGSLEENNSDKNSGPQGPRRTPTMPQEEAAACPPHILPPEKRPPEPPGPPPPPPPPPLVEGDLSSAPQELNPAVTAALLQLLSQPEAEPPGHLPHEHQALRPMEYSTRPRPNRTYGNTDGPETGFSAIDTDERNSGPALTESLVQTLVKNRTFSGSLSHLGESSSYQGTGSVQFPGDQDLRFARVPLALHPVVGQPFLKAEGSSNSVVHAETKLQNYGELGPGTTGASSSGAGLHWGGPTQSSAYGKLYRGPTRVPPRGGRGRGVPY
# T1 sequence (Q16531 whole entry): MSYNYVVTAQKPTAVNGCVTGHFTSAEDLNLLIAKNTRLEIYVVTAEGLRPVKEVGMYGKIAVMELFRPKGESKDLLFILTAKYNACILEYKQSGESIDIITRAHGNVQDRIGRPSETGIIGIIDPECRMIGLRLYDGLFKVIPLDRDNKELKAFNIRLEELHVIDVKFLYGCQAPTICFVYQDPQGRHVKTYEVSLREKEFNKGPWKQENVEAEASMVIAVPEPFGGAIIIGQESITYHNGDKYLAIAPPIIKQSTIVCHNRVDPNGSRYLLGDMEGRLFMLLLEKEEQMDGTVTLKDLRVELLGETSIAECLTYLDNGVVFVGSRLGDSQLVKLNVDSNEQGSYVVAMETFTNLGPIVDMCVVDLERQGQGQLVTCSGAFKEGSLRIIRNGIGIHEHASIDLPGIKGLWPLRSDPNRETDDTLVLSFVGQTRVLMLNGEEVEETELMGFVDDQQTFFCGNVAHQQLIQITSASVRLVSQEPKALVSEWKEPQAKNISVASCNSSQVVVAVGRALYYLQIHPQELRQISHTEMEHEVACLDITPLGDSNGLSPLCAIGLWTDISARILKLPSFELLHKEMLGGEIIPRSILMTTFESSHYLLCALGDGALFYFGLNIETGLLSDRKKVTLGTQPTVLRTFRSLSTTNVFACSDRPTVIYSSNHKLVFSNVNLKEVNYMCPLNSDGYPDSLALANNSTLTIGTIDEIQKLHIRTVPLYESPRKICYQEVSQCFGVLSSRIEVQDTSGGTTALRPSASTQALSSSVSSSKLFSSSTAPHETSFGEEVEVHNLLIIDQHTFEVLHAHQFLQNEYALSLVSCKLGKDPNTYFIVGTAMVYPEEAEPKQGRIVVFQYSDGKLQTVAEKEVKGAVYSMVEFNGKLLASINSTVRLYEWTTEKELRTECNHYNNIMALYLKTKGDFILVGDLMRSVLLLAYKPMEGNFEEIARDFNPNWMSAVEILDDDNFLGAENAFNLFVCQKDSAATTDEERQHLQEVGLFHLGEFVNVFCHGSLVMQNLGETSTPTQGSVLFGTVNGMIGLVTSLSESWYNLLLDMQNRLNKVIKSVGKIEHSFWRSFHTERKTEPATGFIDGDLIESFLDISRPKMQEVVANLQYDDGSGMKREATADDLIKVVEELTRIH
# T1 sequence (O75909 whole entry partner): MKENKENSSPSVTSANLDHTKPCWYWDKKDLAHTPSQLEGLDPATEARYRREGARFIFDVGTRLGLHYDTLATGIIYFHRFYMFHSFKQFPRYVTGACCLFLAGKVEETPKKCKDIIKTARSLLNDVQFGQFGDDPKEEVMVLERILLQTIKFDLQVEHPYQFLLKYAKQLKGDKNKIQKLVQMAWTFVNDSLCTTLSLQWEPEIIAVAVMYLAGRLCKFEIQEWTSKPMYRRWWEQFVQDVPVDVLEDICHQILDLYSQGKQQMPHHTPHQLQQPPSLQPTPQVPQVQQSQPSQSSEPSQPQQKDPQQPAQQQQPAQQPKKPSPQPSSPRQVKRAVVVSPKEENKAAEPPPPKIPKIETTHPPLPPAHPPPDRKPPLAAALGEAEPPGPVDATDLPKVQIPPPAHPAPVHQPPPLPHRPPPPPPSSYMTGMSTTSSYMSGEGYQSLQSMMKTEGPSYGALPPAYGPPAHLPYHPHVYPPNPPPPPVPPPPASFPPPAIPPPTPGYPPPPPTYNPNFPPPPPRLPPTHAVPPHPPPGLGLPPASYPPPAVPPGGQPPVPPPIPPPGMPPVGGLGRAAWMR
# How it was run: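 HEK293T cells transiently co-transfected with HaloTag_CDK12 and NanoLuc_DDB1, labelled overnight with 100 nM HaloTag 618 ligand (DMSO no-ligand control), then treated with compound at 10 μM final for 10 min at room temperature. BRET read as 460 nm donor and 647 nm acceptor emission after Nano-Glo substrate; reported as fold change.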
# [3] = target: T1, DDB1-CDK12/Cyclin K ternary complex; assay: NanoBRET EC50 assay (HaloTag_CDK12 / NanoLuc_DDB1 in HEK293T); assay type: cell-based; conditions: for EC50 / NanoBRET EC50 Activity Class: 10-point titration from 20 μM, HEK293T; for EC50: read-out: NanoBRET EC50 Activity Class
# Procedure: This assay measures the interaction/recruitment of CDK12/Cyclin K to DDB1, mechanistically validating the molecular glue pharmacology.
# HEK293T wildtype cells are seeded 800 k cells/well (DMEM+10% FBS+1% PS) in a 6-well plate and allowed to attach for ˜7 hours followed by a transient transfection of 1.5 μg HaloTag_CDK12 Plasmid [Table 1] and 0.15 μg NanoLuc_DDB1 plasmid [Table 1] per well using PEI. Cells are incubated at 37° C., 5% CO2, harvested after 24 hours and resuspended in assay media (Opti-MEM Reduced serum media, no phenol red, 4% FBS, 1% PS). Cells are adjusted to 2.3×10^5 cells/ml and treated with HaloTag 618 Ligand at 100 nM or DMSO. 8000 cells are seeded per well in triplicates per compound in a white-walled 384-well plate, one negative control treated with DMSO instead of HaloTag 618 Ligand is seeded in triplicates and the 384-well plate is incubated at 37° C., 5% CO2 overnight. Compound stock solutions are prepared in Opti-MEM−/− (Opti-MEM I Reduced serum media, no phenol red) at 8× and used to treat the cells at a final concentration of 1× at 10 μM. Cells and compounds are incubated for 10 minutes at room temperature followed by addition of NanoBRET Nano-Glo substrate following manufacturer's protocols. The plate is shaken for 30 sec followed by immediate measurement of donor emission (NanoBRET Blue at 460 nm) and acceptor emission (BRET Deep Red at 647 nm) for 0.5 s.
# The assay setup is identical to “NanoBRET fold change experimental setup”. Instead of treating cells in […] with 10 μM compound, a 10-point titration starting at 20 μM is performed with a dilution factor of 1:4, covering α range of 20000 nM-0.076 nM.
# KBM7 cells (wild-type) = assay: KBM7 CTG EC50 assay (UBE2M wild-type); assay type: cell-based, human; conditions: for EC50: Homo sapiens, KBM-7, 72 h incubation, CellTiter-Glo, read-out: KBM7 CTG EC50 (UBE2M wild-type) Activity Class; for Ratio UBE2M WT to KO: ratio of anti-proliferative activity in KBM7 wild-type versus UBE2M knock-out cells (fold)
# How it was run: (§4)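 Wild-type KBM7 cells, or KBM7 cells with a hypomorphic UBE2M mutation that impairs Cullin-RING ligase activity, were treated for 72 h with compounds in a 10-point, 1:4 titration (0 to 20 μM). Viability was read by CellTiter-Glo 2.0 luminescence.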
# [4] = test system: KBM7 cells harboring a hypomorphic UBE2M mutation; assay: KBM7 CTG EC50 assay (UBE2M knock-out); assay type: cell-based; conditions: Homo sapiens, KBM-7; 72 h incubation, CellTiter-Glo; read-out: KBM7 CTG EC50 (UBE2M knock-out) Activity Class
# How it was run: as §4
# CCNK = assay: NanoLuc-CCNK degradation assay (HEK293T_Nluc_CCNK-tagged cells); assay type: cell-based; conditions: for DC50: read-out: NanoLuc-CCNK degradation DC50 Activity Class
# How it was run: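 HEK293T cells with nanoluciferase knocked in at the N-terminus of endogenous CCNK (CRISPR) exposed to a 10-point titration (0 to 10 μM, 1:4) in Opti-MEM I + 4% FBS for 4 h. Nano-Glo substrate then added and luminescence read as a measure of Cyclin K abundance.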
# [5] = 4 h incubation, HEK293T_Nluc_CCNK-tagged cells
NanoBRET fold-change Activity Class [2],Compound,CC50 (KBM7_WT cells),CC50 (UBE2M_MUT KBM7 cells),CC50 (CUL4B_MUT KBM7 cells),EC50 (KBM7 cells (wild-type)),Ratio UBE2M WT to KO (KBM7 cells (wild-type)),EC50 [4],further results
,CN(C)C/C=C/C(=O)Nc1ccc(C(=O)N2CCC[C@@H](Nc3ncc(Cl)c(-c4c[nH]c5ccccc45)n3)C2)cc1 [THZ-531],,,,,,,"Cyclin K degradation, in words (Cyclin K): did not cause cyclin K degradation"
,Cc1ccc2c(CC(=O)Nc3nccs3)coc2c1C [Example Z1],7.12 µM,> 10 µM,> 10 µM,,,,
,O=C(NCCCNc1ccc(C(F)(F)F)cn1)c1ccccc1 [Example Z14],4.69 µM,> 10 µM,> 10 µM,,,,
,O=C1CC(CNc2ncc(Cl)cn2)CN1CCc1ccccc1 (centres unmarked) [Example Z10],7.82 µM,> 10 µM,> 10 µM,,,,
,Cc1cc(NC(C)C(=O)Nc2ccc(Cl)cn2)ccc1Br (centres unmarked) [Example Z6],1.57 µM,6.8 µM,6.06 µM,,,,
,COc1ccc2cc(C(C)C(=O)Nc3ncc(C)s3)ccc2c1 (centres unmarked) [Example Z2],1.35 µM,> 10 µM,> 10 µM,,,,
,Cc1ccc(NC(=O)C2CC(=O)N(c3cccc(Cl)c3)C2)nc1 (centres unmarked) [Example Z9],2.35 µM,> 10 µM,> 10 µM,,,,
,O=C(CCn1cnc2ccccc2c1=O)Nc1ccc(Br)cn1 [Example Z7],1.81 µM,> 10 µM,> 10 µM,,,,
,Cc1cnc(NC(=O)C2CC(=O)N(c3cccc(Cl)c3Cl)C2)s1 (centres unmarked) [Example Z13],1.29 µM,6.99 µM,5.68 µM,,,,
,CC[C@H](CO)Nc1nc(NCc2ccc(-c3ccccn3)cc2)c2ncn(C(C)C)c2n1 [CR8],,,,,,,"Cyclin K degradation, in words (Cyclin K): cause Cyclin K degradation"
,"HaloTag_CDK12 (N-terminal HaloTag, G4S linker, CDK12 (713-1052)) (from UniProt Q9NYV4 713-1052) (HEK293T cells)",,,,,,,NanoBRET fold increase [1]: 3 to 4 fold
,O=C(Nc1nc2c(s1)CCCC2)C1CCCN1C(=O)c1ccccc1 (centres unmarked) [Example Z3],11.8 µM,> 10 µM,> 10 µM,,,,
,COc1ccc(C)cc1N1CC(C(=O)Nc2nc3ccccc3[nH]2)CC1=O (centres unmarked) [Example Z11],0.92 µM,2.75 µM,2 µM,,,,
,Cc1cn2nc(NCCNc3ccc(C#N)cn3)sc2n1 [Example Z5],3.75 µM,> 10 µM,> 10 µM,,,,
B (3-4 fold increase),"O=C(Nc1ncc(C(F)(F)F)s1)C1CC(=O)N(c2cc(F)ccc2F)C1 (centres unmarked) [Example 3-22, 1-(2,5-difluorophenyl)-5-oxo-N-(5-(trifluoromethyl)thiazol-2-yl)pyrrolidine-3-carboxamide]",,,,≤ 0.25 µM,>10,> 10 µM,EC50 [3]: > 10 µM; DC50 (CCNK; [5]): > 10 µM
D (1-2 fold increase),"Cc1ccc2c(CC(=O)Nc3ncc(Cl)s3)coc2c1C [Example 3-3, N-(5-chlorothiazol-2-yl)-2-(6,7-dimethylbenzofuran-3-yl)acetamide]",,,,≤ 0.25 µM,23.5,1 to 10 µM,EC50 [3]: > 10 µM; DC50 (CCNK; [5]): > 10 µM
B (3-4 fold increase),"O=C(Cc1cn2cc(F)ccc2n1)Nc1ncc(C(F)(F)F)s1 [Example 3-5, 2-(6-fluoroimidazo[1,2-a]pyridin-2-yl)-N-(5-(trifluoromethyl)thiazol-2-yl)acetamide]",,,,≤ 0.25 µM,142,0.25 to 0.5 µM,"activity in NanoBRET assay (ternary complex formation), in words [3]: particularly exceptional; NanoBRET EC50 Activity Class [3]: C (1.0 μM≤EC50<0.50 μM); activity in NanoLuc CCNK degradation assay, in words (CCNK): particularly exceptional; DC50 (CCNK; [5]): ≤ 0.1 µM"
A (greater than 4-fold increase),"O=C(Cc1cn2cc(F)ccc2n1)Nc1ccc(C2CC2)cn1 [Example 3-62, N-(5-cyclopropylpyridin-2-yl)-2-(6-fluoroimidazo[1,2-a]pyridin-2-yl)acetamide]",,,,≤ 0.25 µM,50.8,0.25 to 0.5 µM,EC50 [3]: ≤ 0.25 µM; DC50 (CCNK; [5]): ≤ 0.1 µM
A (greater than 4-fold increase),"O=C(Nc1ncc(C(F)(F)F)s1)C1CC(=O)N(c2cccc(Cl)c2)C1 (centres unmarked) [Example 3-19, 1-(3-chlorophenyl)-5-oxo-N-(5-(trifluoromethyl)thiazol-2-yl)pyrrolidine-3-carboxamide]",,,,≤ 0.25 µM,9.1,≤ 0.25 µM,NanoBRET EC50 Activity Class [3]: B (0.50 μM≤EC50≤0.25 μM); DC50 (CCNK; [5]): ≤ 0.1 µM
A (greater than 4-fold increase),"Cc1cc(NC(=O)Cc2coc3c(C)c(C)ccc23)n[nH]1 [Example 3-44, 2-(6,7-dimethylbenzofuran-3-yl)-N-(5-methyl-1H-pyrazol-3-yl)acetamide]",,,,≤ 0.25 µM,34.4,0.25 to 0.5 µM,EC50 [3]: ≤ 0.25 µM; NanoLuc-CCNK degradation DC50 Activity Class (CCNK; [5]): B (0.50 μM≤DC50<0.10 μM)
